Experimental data taken from article PMC6154605, “Multi-Anti-Parasitic Activity of Arylidene Ketones and Thiazolidene Hydrazines against Trypanosoma cruzi and Leishmania spp” (Molecules : A Journal of Synthetic Chemistry and Natural …, 2017).
Like-named read-outs stand apart in the source and are kept apart here.

Assays:
[1] = Drug bioconcentration in zebrafish embryos, UV-visible spectroscopy; assay type: in vivo; conditions: whole embryo extract, 25 µM, incubation 25 µM, volume of measurement 100 µL, read-out: conc. in zebrafish embryos
Method: To get an approximation of the distribution and concentration of GAT1033 (the lipophilic compound) in the embryos, in the presence and absence of the chorion, we conducted a first analysis visualizing the embryos by laser scanning confocal microscopy. […] We then quantified the internal concentration of GAT1033 by UV-visible spectroscopy (Figure 9). To do this, we incubated embryos, with and without chorion, with a fixed dose of the compound for different extensions of time. After this, we performed a standard chemical extraction and quantified using spectrophotometry and checking the integrity of the molecules by thin layer chromatography.
Following the same conditions as those of the embryo toxicity test, five embryos were incubated per well in 6-well plates with 5 mL of 25 μM GAT1033. Embryos were incubated with and without chorion, starting at 6 hpf. The incubation medium containing the compound was exchanged daily. Every 24 h, 30 embryos having the same conditions were taken to extract the compound for quantitation. The embryos were washed three times with aquarium water and then centrifuged at low speed to pull out the total remaining solvent. The embryos were then resuspended in 1 mL of aquarium water and lysed by sonication (Omni Sonic Ruptor Omni Sonic Ruptor 400 Ultrasonic Homogenizer) on an ice bath with 4-times half-intensity-15-second pulses, resting 5 seconds. The extract was incubated with 1 mL of methanol/chloroform (2:1) for 5 min at 25 °C, followed by five chloroform extractions. The organic phase was dried over anhydrous sodium sulfate and evaporated in vacuo. The crude extract was dissolved in 100 µL acetonitrile (Merck, HPLC grade) for spectrophotometric measurements (Spectrophotometer double beam UV-Vis model Cary 60 Agilent Cary WinUV). The calibration curve and all of the experiments were performed with GAT1033 under the same conditions. For this, we used the Beer–Lambert–Bouguer Law (BLB law). Optical data for GAT1033 are: ε = (14.7 ± 0.5) cm^−1mM^−1, λmax = 379 nm, emission 530 nm.

[2] = test system: L. braziliensis promastigotes; assay: Leishmanicidal activity on promastigotes, resazurin; assay type: cell-based, Leishmania braziliensis
Summary of the method: (§1)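 Promastigotes (2 × 10^6/well) in Schneider's medium with 20% FBS treated with compound dilutions for 48 h at 26 °C. Resazurin reduction read at 570 and 600 nm; IC50 from duplicate experiments, triplicate concentrations.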

[3] = biological target: T1, LmTIM (triosephosphate isomerase from Leishmania mexicana) (Leishmania mexicana, UniProt P48499); assay: Inhibition of triosephosphate isomerase; assay type: biochemical; conditions: read-out: Percentage of Inhibition LmTIM
T1 construct: made in house; host or cells: Escherichia coli
T1 sequence (P48499 whole entry): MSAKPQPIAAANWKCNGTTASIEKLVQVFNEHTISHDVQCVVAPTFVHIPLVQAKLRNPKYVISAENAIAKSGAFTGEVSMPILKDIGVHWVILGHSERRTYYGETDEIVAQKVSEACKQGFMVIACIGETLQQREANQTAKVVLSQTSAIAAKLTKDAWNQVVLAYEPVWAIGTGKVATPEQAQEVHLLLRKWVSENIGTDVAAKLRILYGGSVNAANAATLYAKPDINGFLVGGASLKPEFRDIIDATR
Method: Compounds were dissolved in DMSO. […] The experiments were performed in triplicate.

zebrafish embryos = assay: Zebrafish embryo toxicity test (LD50)
[4] = test system: J774.1 murine macrophages; conditions: J774.1; read-out: IC50 ± SD Murine Macrophages; cited from earlier work
[5] = test system: L. infantum promastigotes; assay: Leishmanicidal activity on promastigotes, resazurin; assay type: cell-based, Leishmania infantum; conditions: Leishmania infantum, 48 h; read-out: IC50 ± SD Promastigotes L. infantum
Summary of the method: as §1

NCTC929 fibroblasts = assay: Nonspecific cytotoxicity on fibroblasts, resazurin; assay type: cell-based; conditions: NCTC-929, 24 h; read-out: IC50 ± SD Fibroblast NCTC929
Summary of the method: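 NCTC929 murine fibroblasts seeded 3.00 × 10^4 cells/well, grown overnight, then exposed to compounds for 24 h at 37 °C, 5% CO2. Viability read by resazurin reduction (3 h), dual-wavelength absorbance at 490 and 595 nm with background subtracted. Each concentration tested three times.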

C=CCn1c(-c2ccc(Cl)cc2)cs\c1=N/N=C/C=C/c1ccco1 [GAT1033]
concentration at 24 h ([1]; with chorion): 0.3 µM
concentration at 48 h ([1]; with chorion): 4.8 µM
concentration at 72 h ([1]; with chorion): 1.8 µM
concentration at 24 h ([1]; without chorion): 0.4 µM
concentration at 48 h ([1]; without chorion): 7.3 µM
concentration at 72 h ([1]; without chorion): 8.1 µM
IC50 ([2]; Leishmania braziliensis, 48 h, read-out: IC50 ± SD Promastigotes L. braziliensis): 7 ± 1 µM
SI NCTC/ L. braziliensis ([2]; ratio IC50 mammalian cell / IC50 parasite (promastigotes)): 58
inhibition at 100 µM [3]: 0%
LD50 without chorion (zebrafish embryos; dechorionated zebrafish embryos, 72 h incubation): 27 ± 1 µM
LD50 with chorion (zebrafish embryos; zebrafish embryos with chorion): > 100 µM
IC50 [4]: 60 ± 6 µM
IC50 [5]: 2 ± 0.2 µM
IC50 (NCTC929 fibroblasts): 405 ± 10 µM
